Reference: patent US20250313563A1, “GLYCOGEN SYNTHASE KINASE 3 INHIBITORS AND USES THEREOF” (The Broad Institute, Inc., priority 2022, published 2025)
Read-outs that look alike come from different tables or passages of the source.

Tests used:
[1] = target: GSK3α (GST-full length GSK3α) (Homo sapiens (Human), UniProt P49840); assay: GSK3α TR-FRET kinase assay; assay type: biochemical
How it was run: (§1)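 Full-length GST-tagged human enzyme (1 nM) is exposed to test compound for 30 min before substrates are added. Phosphorylation of a primed biotinylated glycogen synthase peptide proceeds 100 min at room temperature at low ATP (4 μM α; 2 μM β) or high ATP (1 mM). Product is quantified by TR-FRET.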

[2] = target: GSK3b (GST-full length GSK3b) (Homo sapiens (Human), UniProt P49841); assay: GSK3b TR-FRET kinase assay; assay type: biochemical
How it was run: as §1

[3] = 1 nM GSK3α, 4 μM ATP, 30 minute preincubation, Table 16, read-out: GSK3-A TR-FRET BIOCHEMICAL (TR-FRET), IC50
[4] = 1 nM GSK3b, 2 μM ATP, 30 minute preincubation, Table 16, read-out: GSK3-B TR-FRET BIOCHEMICAL (TR-FRET), IC50
[5] = 1 nM GSK3α, 4 μM ATP, 30 minute preincubation, Table 16, read-out: GSK3-A TR-FRET BIOCHEMICAL (TR-FRET)
[6] = 1 nM GSK3b, 2 μM ATP, 30 minute preincubation, Table 16, read-out: GSK3-B TR-FRET BIOCHEMICAL (TR-FRET)
[7] = read-out: GSK3-A (TR-FRET 1 mM ATP), GMean, IC50, 1 mM ATP, geometric mean
[8] = read-out: GSK3-B (TR-FRET 1 mM ATP), GMean, IC50, 1 mM ATP, geometric mean
[9] = GSK3-A (TR-FRET 1 mM ATP), GMean, IC50, 1 mM ATP, geometric mean
[10] = GSK3-B (TR-FRET 1 mM ATP), GMean, IC50, 1 mM ATP, geometric mean
[11] = 1 nM GSK3α, 4 μM ATP, 30 minute preincubation, geometric mean, read-out: GSK3-A TR-FRET BIOCHEMICAL (TR-FRET), GMean, IC50
[12] = 1 nM GSK3b, 2 μM ATP, 30 minute preincubation, geometric mean, read-out: GSK3-B TR-FRET BIOCHEMICAL (TR-FRET), GMean, IC50
[13] = 1 nM GSK3α, 4 μM ATP, 30 minute preincubation, read-out: GSK3-A TR-FRET BIOCHEMICAL (TR-FRET), IC50
[14] = 1 nM GSK3b, 2 μM ATP, 30 minute preincubation, read-out: GSK3-B TR-FRET BIOCHEMICAL (TR-FRET), IC50

GSK3b (GST-full length GSK3b), sequence (P49841 whole entry): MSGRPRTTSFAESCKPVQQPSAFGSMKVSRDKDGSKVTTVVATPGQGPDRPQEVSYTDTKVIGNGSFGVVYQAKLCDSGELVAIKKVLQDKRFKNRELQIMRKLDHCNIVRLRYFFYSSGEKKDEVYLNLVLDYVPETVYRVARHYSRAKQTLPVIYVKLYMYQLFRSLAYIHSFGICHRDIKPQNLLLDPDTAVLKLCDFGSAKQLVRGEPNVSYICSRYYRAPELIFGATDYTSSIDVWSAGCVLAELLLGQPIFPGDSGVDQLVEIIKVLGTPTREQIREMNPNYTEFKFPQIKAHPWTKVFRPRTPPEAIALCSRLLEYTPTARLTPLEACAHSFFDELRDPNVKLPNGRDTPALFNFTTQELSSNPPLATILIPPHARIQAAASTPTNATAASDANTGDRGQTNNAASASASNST
GSK3α (GST-full length GSK3α), sequence (P49840 whole entry): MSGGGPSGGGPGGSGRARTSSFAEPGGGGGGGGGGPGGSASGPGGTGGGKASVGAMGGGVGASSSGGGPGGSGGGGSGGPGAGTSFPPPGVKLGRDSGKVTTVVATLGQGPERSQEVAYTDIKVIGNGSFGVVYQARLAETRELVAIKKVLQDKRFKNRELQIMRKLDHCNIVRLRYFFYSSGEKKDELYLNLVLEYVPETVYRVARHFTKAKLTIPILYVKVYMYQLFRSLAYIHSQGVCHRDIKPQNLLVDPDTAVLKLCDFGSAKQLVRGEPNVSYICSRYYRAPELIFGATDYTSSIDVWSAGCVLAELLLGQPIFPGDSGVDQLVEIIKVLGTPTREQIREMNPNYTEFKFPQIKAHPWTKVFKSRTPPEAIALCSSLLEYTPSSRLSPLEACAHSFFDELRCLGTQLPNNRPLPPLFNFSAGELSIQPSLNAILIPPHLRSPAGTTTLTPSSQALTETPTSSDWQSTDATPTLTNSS

CCC1(c2cccc(-c3ccnc(C)c3)c2)C2=C(CC(C)(C)C2=O)Nc2n[nH]cc21 (centres unmarked) [Compound 949840]
IC50 [1, 3]: 100 to 1000 nM
IC50 [2, 4]: 1000 to 5000 nM

CCC1(c2cccc(-c3cnn(-c4cnccn4)c3)c2)C2=C(CC(C)(C)NC2=O)Nc2n[nH]cc21 (centres unmarked) [Compound 952207]
IC50 [1, 3]: 100 to 1000 nM
IC50 [2, 4]: 1000 to 5000 nM

CC1(C)CC(=O)C2=C(C1)Nc1n[nH]cc1[C@]21CCO[C@H](C(F)(F)F)C1 [Compound 884023]
IC50 [1, 3]: 1000 to 5000 nM
IC50 [2, 4]: > 5000 nM

COc1ccc(S(=O)(=O)N2CCC3(CC2)C2=C(CC(C)(C)CC2=O)Nc2n[nH]cc23)cc1Cl [Compound 947612]
IC50 [1, 5]: ≤ 100 nM
IC50 [2, 6]: ≤ 100 nM

CC[C@]1(c2cccc(Oc3ncccn3)c2)C2=C(CC(C)(C)NC2=O)Nc2n[nH]c(C(F)(F)F)c21 [Compound 951607]
IC50 [1, 3]: ≤ 100 nM
IC50 [1, 7]: ≤ 100 nM
IC50 [2, 4]: ≤ 100 nM
IC50 [2, 8]: 100 to 1000 nM

CC[C@@]1(c2cccc(-c3cc(C4CCCC4)nn3C)c2)C2=C(CC(C)(C)NC2=O)Nc2n[nH]cc21 [Compound 949509]
IC50 [1, 3]: > 5000 nM
IC50 [2, 4]: > 5000 nM

CC[C@@]1(c2cccc(-c3cc(C)nnc3C)c2)C2=C(CC(C)(C)NC2=O)Nc2n[nH]cc21 [Compound 949334]
IC50 [1, 3]: 1000 to 5000 nM
IC50 [2, 4]: > 5000 nM

CC1(C)CC(=O)C2=C(C1)Nc1n[nH]cc1[C@@]21CCOC(C)(C)C1 [Compound 924299]
IC50 [1, 5]: 100 to 1000 nM
IC50 [2, 6]: 100 to 1000 nM

CC1(C)CC(=O)C2=C(C1)Nc1n[nH]cc1C21CN(C2CCCCC2)C1 [Compound 929446]
IC50 [1, 3]: 1000 to 5000 nM
IC50 [2, 4]: 1000 to 5000 nM

CC1(C)CC(=O)C2=C(C1)Nc1n[nH]cc1[C@]21CCN(S(=O)(=O)C2CCCC2)C1 [Compound 943482]
IC50 [1, 5]: ≤ 100 nM
IC50 [1, 9]: 100 to 1000 nM
IC50 [2, 6]: ≤ 100 nM
IC50 [2, 10]: 100 to 1000 nM

CC[C@]1(c2cccc(-c3cc(-c4ccccc4)nn3C(C)C)c2)C2=C(CC(C)(C)NC2=O)Nc2n[nH]cc21 [Compound 952411]
IC50 [1, 3]: 1000 to 5000 nM
IC50 [2, 4]: > 5000 nM

CCC1(c2cccc(S(C)(=O)=O)c2)C2=C(CC(C)(C)CC2=O)Nc2n[nH]cc21 (centres unmarked) [Compound 819561]
IC50 [1, 11]: ≤ 100 nM
IC50 [2, 12]: ≤ 100 nM

CC1(C)CC(=O)C2=C(C1)Nc1n[nH]cc1C21CC(c2ccccc2)C1 (centres unmarked) [Compound 917081]
IC50 [1, 5]: ≤ 100 nM
IC50 [2, 6]: ≤ 100 nM

CCC1(c2cccc(C(F)F)c2)C2=C(CC(C)(C)CC2=O)Nc2n[nH]cc21 (centres unmarked) [Compound 826716]
IC50 [1, 11]: 100 to 1000 nM
IC50 [2, 12]: > 5000 nM

CC[C@]1(c2cccc(C(F)F)c2)C2=C(CC(C)(C)NC2=O)Nc2n[nH]cc21 [Compound 949006]
IC50 [1, 11]: ≤ 100 nM
IC50 [1, 7]: 100 to 1000 nM
IC50 [2, 12]: 100 to 1000 nM
IC50 [2, 8]: > 5000 nM

CCC1(c2cccc(-c3c(F)cncc3OC)c2)C2=C(CN(Cc3ccccc3)C2=O)Nc2n[nH]cc21 (centres unmarked) [Compound 948550]
IC50 [1, 13]: ≤ 100 nM
IC50 [2, 14]: 100 to 1000 nM

CC1(C)CC(=O)C2=C(C1)Nc1n[nH]cc1C21CCN(S(=O)(=O)c2cnn3ccccc23)CC1 [Compound 947615]
IC50 [1, 5]: ≤ 100 nM
IC50 [2, 6]: ≤ 100 nM

COc1cccc(S(=O)(=O)N2CCCC3(CC2)C2=C(CC(C)(C)CC2=O)Nc2n[nH]cc23)c1 (centres unmarked) [Compound 917140]
IC50 [1, 5]: ≤ 100 nM
IC50 [2, 6]: 100 to 1000 nM

CC1(C)CC(=O)C2=C(C1)Nc1n[nH]cc1C21CCN(CC(F)F)CC1 [Compound 883962]
IC50 [1, 5]: 100 to 1000 nM
IC50 [2, 6]: 100 to 1000 nM

CCC1(c2cccc(N3CCOCC3)c2)C2=C(CC(C)(C)CC2=O)Nc2n[nH]c(C(F)(F)F)c21 (centres unmarked) [Compound 810507]
IC50 [1, 11]: ≤ 100 nM
IC50 [2, 12]: ≤ 100 nM

CC[C@@]1(c2cccc(-c3ccncc3C)c2)C2=C(CC(C)(C)NC2=O)Nc2n[nH]c(C)c21 [Compound 947414]
IC50 [1, 11]: ≤ 100 nM
IC50 [1, 7]: 100 to 1000 nM
IC50 [2, 12]: ≤ 100 nM
IC50 [2, 8]: 1000 to 5000 nM

CC[C@]1(c2cccc(C(F)(F)F)c2)C2=C(CN(C)C2=O)Nc2n[nH]cc21 [Compound 945368]
IC50 [1, 13]: > 5000 nM
IC50 [2, 14]: > 5000 nM

CCC1(c2cccc(-c3ccnc(O)c3)c2)C2=C(CC(C)(C)CC2=O)Nc2n[nH]cc21 (centres unmarked) [Compound 943992]
IC50 [1, 5]: ≤ 100 nM
IC50 [2, 6]: 100 to 1000 nM

CC(C)(C)Cc1[nH]nc2c1C(C)(c1cccc(S(=O)(=O)N3CCCC3)c1)C1=C(CC(C)(C)NC1=O)N2 (centres unmarked) [Compound 108791]
IC50 [1, 7]: 1000 to 5000 nM
IC50 [2, 8]: 100 to 1000 nM

CCC1(c2cccc(C3CCOC3)c2)C2=C(CC(C)(C)CC2=O)Nc2n[nH]cc21 (centres unmarked) [Compound 889565]
IC50 [1, 3]: 100 to 1000 nM
IC50 [2, 4]: 1000 to 5000 nM

CC1(C)CC(=O)C2=C(Nc3n[nH]cc3C23CCOCC3)[C@@H]1F [Compound 883834]
IC50 [1, 5]: 100 to 1000 nM
IC50 [2, 6]: 1000 to 5000 nM

CCC1(c2cccc(S(=O)(=O)CC3CC3)c2)C2=C(CC(C)(C)NC2=O)Nc2n[nH]c(C(F)(F)F)c21 (centres unmarked) [Compound 948179]
IC50 [1, 11]: ≤ 100 nM
IC50 [2, 12]: ≤ 100 nM

C[C@H]1CCC[C@]2(C1)C1=C(CC(C)(C)CC1=O)Nc1n[nH]cc12 [Compound 893318]
IC50 [1, 5]: 100 to 1000 nM
IC50 [2, 6]: 100 to 1000 nM

CCC1(c2cccc(-c3cn(C)nc3C)c2)C2=C(Nc3n[nH]cc31)C(F)C(C)(C)CC2=O (single isomer, unassigned) [Compound 947653, 4-(3-(1,3-dimethyl-1H-pyrazol-4-yl)phenyl)-4-ethyl-8-fluoro-7,7-dimethyl-2,4,6,7,8,9-hexahydro-5H-pyrazolo[3,4-b]quinolin-5-one]
IC50 [1, 5]: ≤ 100 nM
IC50 [2, 6]: 100 to 1000 nM

CC[C@@]1(c2cccc(-c3cnn(C)c3)c2)C2=C(Nc3n[nH]cc31)[C@H](F)C(C)(C)CC2=O [Compound 957505]
IC50 [1, 5]: ≤ 100 nM
IC50 [1, 7]: 1000 to 5000 nM
IC50 [2, 6]: 1000 to 5000 nM
IC50 [2, 8]: > 5000 nM

CCC1(c2cccc(-c3ccncc3Cl)c2)C2=C(CC(C)(C)NC2=O)Nc2n[nH]cc21 (centres unmarked) [Compound 948020]
IC50 [1, 11]: 100 to 1000 nM
IC50 [2, 12]: 100 to 1000 nM

CCC1(c2cccc(Br)c2)C2=C(CC(C(F)(F)F)CC2=O)Nc2n[nH]cc21 (centres unmarked) [Compound 819565]
IC50 [1, 11]: 100 to 1000 nM
IC50 [2, 12]: 100 to 1000 nM

CC[C@]1(c2cccc(N(C)c3ccc(C(F)(F)F)nc3)c2)C2=C(CC(C)(C)CC2=O)Nc2n[nH]cc21 [Compound 945474]
IC50 [1, 5]: ≤ 100 nM
IC50 [2, 6]: 100 to 1000 nM

CC[C@]1(c2cccc(-c3ccnn3C)c2)C2=C(CC3(CCOCC3)NC2=O)Nc2n[nH]cc21 [Compound 948526]
IC50 [1, 11]: 1000 to 5000 nM
IC50 [2, 12]: > 5000 nM

CCC1(c2cccc(S(=O)(=O)C3CCCCC3)c2)C2=C(CC(C)(C)CC2=O)Nc2n[nH]cc21 (centres unmarked) [Compound 943547]
IC50 [1, 5]: 1000 to 5000 nM
IC50 [2, 6]: > 5000 nM

CC1(C)CC(=O)C2=C(C1)Nc1n[nH]cc1C21CCC1 [Compound 874509]
IC50 [1, 5]: 100 to 1000 nM
IC50 [2, 6]: 100 to 1000 nM

CCC1(c2cccc(-c3ccncc3)c2)C2=C(CC(C)CC2=O)Nc2n[nH]cc21 (centres unmarked) [Compound 874316]
IC50 [1, 11]: 100 to 1000 nM
IC50 [2, 12]: 1000 to 5000 nM

CCC1(c2cccc(N3CCc4cnccc4C3)c2)C2=C(CC(C)(C)CC2=O)Nc2n[nH]cc21 (centres unmarked) [Compound 929449]
IC50 [1, 3]: 1000 to 5000 nM
IC50 [2, 4]: 1000 to 5000 nM

CC1(C)CC(=O)C2=C(C1)Nc1n[nH]cc1[C@]21CCN(S(=O)(=O)CC2CC2)C1 [Compound 951723]
IC50 [1, 13]: ≤ 100 nM
IC50 [1, 9]: ≤ 100 nM
IC50 [2, 14]: ≤ 100 nM
IC50 [2, 10]: 100 to 1000 nM

CCC1(c2cccc(-c3ccnc(C)c3)c2)C2=C(CC3(CCOCC3)NC2=O)Nc2n[nH]cc21 (centres unmarked) [Compound 948524]
IC50 [1, 11]: 1000 to 5000 nM
IC50 [2, 12]: > 5000 nM
